Measured values taken from patent publication EP2570413A1, “Benzothiazinone derivatives as anti-tuberculosis agents” (The University Of Queensland, priority 2011, dated 2013).
In brackets after ≈: the same amount, converted by molar mass.

Columns and labels:
MDR M. tuberculosis = assay: MIC assay, broth microdilution; format: cell-based; details: for MIC: Mycobacterium tuberculosis, read-out: MIC M. 1b.
Plasma stability, mouse = format: in vitro ADME
M. smegmatis SG987 [1] = assay: MIC assay, broth microdilution; format: cell-based, Mycobacterium smegmatis; details: for MIC: Mycolicibacterium smegmatis, SG987, read-out: MIC M. smeg. SG987
Source text: The protocol used is the broth microdilution method in microtiter plates (MTP), based upon that detailed by the CLSI (Clinical and Laboratory Standards Institute (CLSI). 2006. Methods for Dilution Antimicrobial Susceptibility Tests for Bacteria that Grow Aerobically; Approved Standard. 7th edn. Document M7-A6. Clinical and Laboratory Standards Institute, Wayne, PA.).
Strain: Mycobacterium smegmatis, ATCC 700084, or other Mycobacterium strains (see table below).
Medium: The bacteria culture and the MIC were done using the following medium: MHB - Mueller-Hinton Broth + 0.05% Tween80, purchased from Difco, Tween80 has been added to avoid clumping of the bacteria.
This highest concentration is filled in the first row of the microtiter plate and further diluted in the culture medium for the Mycobacteria (Mueller-Hinton Broth and Middlebrook 7H9 broth). All solutions are freshly prepared under sterile conditions.
Resazurin salt powder (Sigma) is prepared at 0.01 % (wt/vol) in distilled water, sterilized by filtration through a 0.22 µm membrane and stored at 4°C for a week.
Ciprofloxacin, isoniaz-d and rifampicin can be used as reference compounds for control of the assay as well as a solvent control. Minimal inhibitory concentrations (MIC) are determined by the broth microdilution method. 50 µl of the compound solution in DMSO/MeOH are serially diluted directly in the microtiter plate by factor two with Mueller-Hinton broth (MHB)(Difco). Then the wells are inoculated with 50 µl of test organisms in MHB to give a final concentration of 5x10^5 CFU/ml. After microtiter plates are incubated at 37°C for 48 h, the optical density of each well is measured with a Nepheloscan Ascent 1.4 automatic plate reader (Labsystems, Vantaa, Finland). Then 30 µl of resazurin solution is added to each well and plates are allowed to incubate at 37°C for additional 24 h. A change from blue to pink indicates reduction of resazurin and therefore bacterial growth. The MIC is defined as the lowest drug concentration that prevents this colour change.

Plasma stability, human = format: in vitro ADME
M. aurum = assay: MIC assay, broth microdilution; format: cell-based; details: Mycolicibacterium aurum
M fort. = assay: MIC assay, broth microdilution; format: cell-based
[2] = Chemical stability in NaCl/HCl/pepsin; format: physicochemical
M. tuberculosis H37Rv = assay: In-vivo mouse survival; details: 50 img/kg
[3] = Metabolic stability, human; format: in vitro ADME
[4] = Metabolic stability, mouse; format: in vitro ADME
M. vaccae 10670 = assay: MIC assay, broth microdilution; format: cell-based; details: for MIC: Mycolicibacterium vaccae, 10670
M. smegmatis SG987 [5] = assay: Agar diffusion assay; format: cell-based, Mycobacterium smegmatis; set-up: key to colonies in the inhibition zone: (p): few colonies in the inhibition zone; p: colonies in the inhibition zone; P: many colonies in the inhibition zone; A: faint indication of inhibition zone; details: for zone of inhibition at 1 µg/mL: Mycolicibacterium smegmatis; for colonies in the inhibition zone: at 1 µg/ml
Procedure: Antimicrobial activity is additionally determined by agar diffusion tests according to: European Pharmacopoeia, 3rd edition, 1997; 13, 118, Deutscher Apotheker Verlag Stuttgart
100 µl suspension of the test organism M. smegmatis SG987 with a density of McFarland standard 0.5 are inoculated into 34 ml of sterile melted agar medium (Nutrient agar from Serva Electrophoresis GmbH, Heidelberg, Germany) and poured into Petri dishes. Wells of 9 mm in diameter are cut in the agar and filled with 50 µl of the compound solution (for concentrations see Table 2). Compounds are dissolved in DMSO in a concentration of 1 mg/ml and further diluted in methanol to the final concentration. Growth inhibition zones around the agar wells are read after overnight incubation at 37°C.

Mycobacteria = details: existing anti-tuberculosis drugs, comparison values; cited from earlier work
[6] = Mouse, test compound 5 µM in plasma
[7] = Human, test compound 5 µM in plasma
[8] = Test compound 5 µM in 35mM NaCl, 85 mM HCl, appr. 2000 U pepsin
[9] = Human, test compound 1 µM in NADP (1.3 mM), G6P 3.3 mM, G6PDHase, DMSO
[10] = Mouse, test compound 1 µM in NADP (1.3 mM), G6P 3.3 mM, G6PDHase, DMSO

For `O=c1nc(N2CCC(c3ccccc3)CC2)sc2c([N+](=O)[O-])cc(C(F)(F)F)cc12` [Compound 1], the MIC (MDR M. tuberculosis) was under 15 ng/mL, the “Plasma Stability Mouse” value (Plasma stability, mouse; [6]) was 71% and the MIC (M. smegmatis SG987 [1]) was 4 ng/mL (≈ 9.19 nM). The “Plasma Stability Human” value (Plasma stability, human; [7]) was 96%, the MIC (M. aurum) was over 100 ng/mL and the MIC (M fort.) was 12.5 ng/mL (≈ 28.7 nM). The “Chemical Stability” value [2, 8] was 82%, the “In-vivo Mouse Survival 4 wks” value (M. tuberculosis H37Rv) was 4 of 10 and the “Metabolic Stability Human” value [3, 9] was 120%. The “Metabolic Stability Mouse” value [4, 10] was 75% and the MIC (M. vaccae 10670) was 0.4 ng/mL (≈ 0.919 nM).
For `O=c1nc(N2CCC(c3ccc(Cl)cc3)CC2)sc2c([N+](=O)[O-])cc(C(F)(F)F)cc12` [Compound 2], the “MIC M. 1b.” value (MDR M. tuberculosis; M. 1b., MDR M. tuberculosis) was 4 ng/mL (≈ 8.51 nM), the MIC (MDR M. tuberculosis) was 4 ng/mL (≈ 8.51 nM) and the zone of inhibition at 1 µg/mL (M. smegmatis SG987 [5]) was 22 mm. For the same compound, the “Plasma Stability Mouse” value (Plasma stability, mouse; [6]) was 88%, the “MIC M. smeg. SG987” value (M. smegmatis SG987 [1]; M. smeg. SG987) was under 5 ng/mL and the MIC (M. smegmatis SG987 [1]) was under 5 ng/mL. The “Plasma Stability Human” value (Plasma stability, human; [7]) was 86%, the “Chemical Stability” value [2, 8] was 52% and the “Metabolic Stability Human” value [3, 9] was 59%. The “Metabolic Stability Mouse” value [4, 10] was 39%, the “MIC M. vaccae 10670” value (M. vaccae 10670; M. vaccae 10670) was under 0.0012 ng/mL and the MIC (M. vaccae 10670) was under 0.0012 ng/mL.
For `Cc1ccc(C2CCN(c3nc(=O)c4cc(C(F)(F)F)cc([N+](=O)[O-])c4s3)CC2)cc1` [Compound 3], the MIC (MDR M. tuberculosis) was 8 ng/mL (≈ 17.8 nM), the zone of inhibition at 1 µg/mL (M. smegmatis SG987 [5]) was under 22 mm and the “Plasma Stability Mouse” value (Plasma stability, mouse; [6]) was 108%. For the same compound, the MIC (M. smegmatis SG987 [1]) was under 5 ng/mL, the “Plasma Stability Human” value (Plasma stability, human; [7]) was 98% and the “Chemical Stability” value [2, 8] was 54%. For the same compound, the “Metabolic Stability Human” value [3, 9] was 30%, the “Metabolic Stability Mouse” value [4, 10] was 9% and the MIC (M. vaccae 10670) was under 0.0012 ng/mL.
With `O=c1nc(N2CCC(c3cccc(F)c3)CC2)sc2c([N+](=O)[O-])cc(C(F)(F)F)cc12` [Compound 4] the MIC (MDR M. tuberculosis) was 16 ng/mL (≈ 35.3 nM), the zone of inhibition at 1 µg/mL (M. smegmatis SG987 [5]) was 24 mm and the “Plasma Stability Mouse” value (Plasma stability, mouse; [6]) was 107%. The MIC (M. smegmatis SG987 [1]) was under 5 ng/mL, the “Plasma Stability Human” value (Plasma stability, human; [7]) was 99% and the “Chemical Stability” value [2, 8] was 71%. The “Metabolic Stability Human” value [3, 9] was 28%, the “Metabolic Stability Mouse” value [4, 10] was 10% and the MIC (M. vaccae 10670) was under 0.0012 ng/mL.
With `O=c1nc(N2CCC(c3ccc(F)c(F)c3)CC2)sc2c([N+](=O)[O-])cc(C(F)(F)F)cc12` [Compound 5] the MIC (MDR M. tuberculosis) was 8 ng/mL (≈ 17 nM), the zone of inhibition at 1 µg/mL (M. smegmatis SG987 [5]) was 27 mm and the “Plasma Stability Mouse” value (Plasma stability, mouse; [6]) was 111%. For the same compound, the MIC (M. smegmatis SG987 [1]) was under 5 ng/mL, the “Plasma Stability Human” value (Plasma stability, human; [7]) was 124% and the “Chemical Stability” value [2, 8] was 63%. The “Metabolic Stability Human” value [3, 9] was 49%, the “Metabolic Stability Mouse” value [4, 10] was 28% and the MIC (M. vaccae 10670) was under 0.0012 ng/mL.
For `O=c1nc(N2CCC(Cc3ccccc3)CC2)sc2c([N+](=O)[O-])cc(C(F)(F)F)cc12` [Compound 6], the MIC (MDR M. tuberculosis) was 32 ng/mL (≈ 71.2 nM), the “Plasma Stability Mouse” value (Plasma stability, mouse; [6]) was 108% and the MIC (M. smegmatis SG987 [1]) was under 5 ng/mL. The “Plasma Stability Human” value (Plasma stability, human; [7]) was 98%, the “Chemical Stability” value [2, 8] was 55% and the “Metabolic Stability Human” value [3, 9] was 1%. The “Metabolic Stability Mouse” value [4, 10] was 0% and the MIC (M. vaccae 10670) was under 0.0012 ng/mL.
For `Cc1cccc(C2CCN(c3nc(=O)c4cc(C(F)(F)F)cc([N+](=O)[O-])c4s3)CC2)c1` [Compound 7], the MIC (MDR M. tuberculosis) was 8 ng/mL (≈ 17.8 nM), the “Plasma Stability Mouse” value (Plasma stability, mouse; [6]) was 100% and the MIC (M. smegmatis SG987 [1]) was under 5 ng/mL. The “Plasma Stability Human” value (Plasma stability, human; [7]) was 103%, the “Chemical Stability” value [2, 8] was 53% and the “Metabolic Stability Human” value [3, 9] was 21%. For the same compound, the “Metabolic Stability Mouse” value [4, 10] was 18% and the MIC (M. vaccae 10670) was under 0.0012 ng/mL.
In the case of `O=c1nc(N2CCC(c3ccccc3F)CC2)sc2c([N+](=O)[O-])cc(C(F)(F)F)cc12` [Compound 8], the MIC (MDR M. tuberculosis) is reported as 8 ng/mL (≈ 17.6 nM), the zone of inhibition at 1 µg/mL (M. smegmatis SG987 [5]) is reported as 27 mm and the “Plasma Stability Mouse” value (Plasma stability, mouse; [6]) is reported as 105%. The MIC (M. smegmatis SG987 [1]) was under 5 ng/mL, the “Plasma Stability Human” value (Plasma stability, human; [7]) was 107% and the “Chemical Stability” value [2, 8] was 61%. For the same compound, the “Metabolic Stability Human” value [3, 9] was 69%, the “Metabolic Stability Mouse” value [4, 10] was 78% and the MIC (M. vaccae 10670) was under 0.0012 ng/mL.
In the case of `C[C@H]1COC2(CCN(c3nc(=O)c4cc(C(F)(F)F)cc([N+](=O)[O-])c4s3)CC2)O1` [I (Ref.), reference compound], the MIC (MDR M. tuberculosis) is reported as under 15 ng/mL, the zone of inhibition at 1 µg/mL (M. smegmatis SG987 [5]) is reported as 17 mm and the “colonies in the inhibition zone” value (M. smegmatis SG987 [5]) is reported as “p-P”. The “Plasma Stability Mouse” value (Plasma stability, mouse; mouse, 5 µM) was 45%, the MIC (M. smegmatis SG987 [1]) was under 5 ng/mL and the “Plasma Stability Human” value (Plasma stability, human; human, 5 µM) was 98%. For the same compound, the MIC (M. aurum) was over 100000 ng/mL, the MIC (M fort.) was 1.56 ng/mL (≈ 3.62 nM) and the “Chemical Stability” value ([2]; 5 µM) was 98%. The “Metabolic Stability Human” value ([3]; human, 1 µM) was 107%, the “Metabolic Stability Mouse” value ([4]; mouse, 1 µM) was 97% and the MIC (M. vaccae 10670) was 0.625 ng/mL (≈ 1.45 nM).
For `O=c1nc(N2CCN(Cc3ccccc3)CC2)sc2c([N+](=O)[O-])cc(C(F)(F)F)cc12` [II (Ref.), reference compound], the MIC (M. smegmatis SG987 [1]) was 50 ng/mL (≈ 111 nM), the MIC (M fort.) was 50 ng/mL (≈ 111 nM) and the MIC (M. vaccae 10670) was 50 ng/mL (≈ 111 nM).
With `O=C(O)c1cn(C2CC2)c2cc(N3CCNCC3)c(F)cc2c1=O` [III (Ref.), ciprofloxacin, reference compound] the zone of inhibition at 1 µg/mL (M. smegmatis SG987 [5]) was 20 mm, the “colonies in the inhibition zone” value (M. smegmatis SG987 [5]) was “p” and the MIC (M. smegmatis SG987 [1]) was 200 ng/mL (≈ 604 nM).
In the case of `CC[C@@H](CO)NCCN[C@@H](CC)CO` [ethambutol], the MIC (Mycobacteria) is listed as 1000 to 5000 ng/mL.
For `NNC(=O)c1ccncc1` [isoniazid], the MIC (Mycobacteria) is given as 20 to 200 ng/mL.
